Data as given in ChEMBL document CHEMBL1201862, “PubChem BioAssay data set” (2004).
Calls of active or inactive are those of the source.

What was measured:
Vero [1] = test: cells; type: functional, cell-based; conditions: Chlorocebus sabaeus
[2] = viability loss in HepG2 hepatoma cells – cell-based, ATP luminescence, cherry-pick, activator set 2, cytotoxicity control, dose response (AID 1053143); type: functional
[3] = target: 5-hydroxytryptamine receptor 5A (Homo sapiens, UniProt P47898); test: Counterscreen for agonists of OPRM1-OPRD1 heterodimerization: luminescence-based cell-based high throughput dose response assay to identify agonists of 5-hydroxytryptamine (serotonin) 5A receptor (HTR5A). [Related pubchem assays (depositor defined):AID504326, AID504355, AID504692, AID504904, AID504905]; type: functional
[4] = target: Delta-type opioid receptor (Homo sapiens, UniProt P41143); test: Counterscreen for agonists of heterodimerization of the mu 1 (OPRM1) and delta 1 (OPRD1) opioid receptors: Luminescence-based cell-based high throughput dose response assay to identify agonists of OPRD1 homodimerization. [Related pubchem assays (depositor defined):AID504326, AID504355, AID504692, AID504904, AID504905]; type: functional
Mu-type opioid receptor = Mu-type opioid receptor (Homo sapiens, UniProt P35372); test: Counterscreen for agonists of heterodimerization of the mu 1 (OPRM1) and delta 1 (OPRD1) opioid receptors: Luminescence-based cell-based high throughput dose response assay to identify agonists of OPRM1 homodimerization.; type: functional;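 note: U2OS cells expressing OPRM1 and beta-arrestin as split beta-galactosidase partners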
Vero [5] = test: cells; type: functional; conditions: Chlorocebus sabaeus
[6] = NIH-3T3 fibroblast cytotoxicity, dose response, cytotoxicity control, cell-based, fluorescence, Alamar Blue, secondary assay (AID 2327); type: functional;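 note: NIH-3T3 mouse fibroblasts cultured with fluconazole at 8 µg/mL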
[7] = target: ATP-dependent molecular chaperone HSP82 (Candida albicans (strain WO-1) (Yeast), UniProt C4YTQ8); test: steroid-induced GRE reporter decrease in yeast – S. cerevisiae, luminescence, Hsp90 inhibitor project, dose response (AID 2400); type: functional, cell-based;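 note: beta-galactosidase luminescence from glucocorticoid response element reporter as proxy for Hsp90 function; inhibitor potency where signal loss means Hsp90 inhibition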
[8] = fluconazole-exposed Candida albicans growth modulators – fluorescence, retest, confirmation (AID 2467); type: functional, cell-based
[9] = target: T1, Serine/threonine-protein phosphatase (Candida dubliniensis (strain CD36 / CBS 7987 / NCPF 3949 / NRRLY-17841) (Yeast), UniProt B9W6M3); test: blockers of CaCl2-induced CDRE-lacZ signaling – S. cerevisiae, luminescence, secondary, dose response (AID 2388); type: functional, cell-based;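 note: yeast reporter cells carrying a calcineurin-responsive lacZ construct stimulated with calcium chloride; luminescent beta-galactosidase reporter signal in whole cells rather than isolated phosphatase activity; potency for inhibition where a drop in reporter signal means calcineurin blockade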
T1 sequence (B9W6M3 whole entry): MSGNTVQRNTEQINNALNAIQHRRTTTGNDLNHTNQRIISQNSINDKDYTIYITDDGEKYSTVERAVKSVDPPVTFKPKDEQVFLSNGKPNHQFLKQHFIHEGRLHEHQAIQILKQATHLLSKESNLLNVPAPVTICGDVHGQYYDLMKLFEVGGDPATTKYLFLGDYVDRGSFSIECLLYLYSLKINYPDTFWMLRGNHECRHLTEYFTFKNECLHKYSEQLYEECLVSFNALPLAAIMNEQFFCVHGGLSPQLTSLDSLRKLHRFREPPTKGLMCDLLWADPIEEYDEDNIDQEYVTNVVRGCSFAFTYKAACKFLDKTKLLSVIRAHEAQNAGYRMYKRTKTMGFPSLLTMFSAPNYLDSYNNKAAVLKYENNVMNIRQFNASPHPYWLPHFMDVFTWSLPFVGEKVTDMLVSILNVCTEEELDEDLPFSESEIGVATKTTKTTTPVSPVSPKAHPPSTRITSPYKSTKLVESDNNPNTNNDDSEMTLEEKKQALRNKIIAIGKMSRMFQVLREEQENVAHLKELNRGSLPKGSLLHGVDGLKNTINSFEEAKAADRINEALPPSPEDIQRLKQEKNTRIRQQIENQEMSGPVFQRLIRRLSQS

[10] = target: T2, Histone-lysine N-methyltransferase NSD2 (Homo sapiens, UniProt O96028); type: biochemical
T2 sequence (O96028 whole entry): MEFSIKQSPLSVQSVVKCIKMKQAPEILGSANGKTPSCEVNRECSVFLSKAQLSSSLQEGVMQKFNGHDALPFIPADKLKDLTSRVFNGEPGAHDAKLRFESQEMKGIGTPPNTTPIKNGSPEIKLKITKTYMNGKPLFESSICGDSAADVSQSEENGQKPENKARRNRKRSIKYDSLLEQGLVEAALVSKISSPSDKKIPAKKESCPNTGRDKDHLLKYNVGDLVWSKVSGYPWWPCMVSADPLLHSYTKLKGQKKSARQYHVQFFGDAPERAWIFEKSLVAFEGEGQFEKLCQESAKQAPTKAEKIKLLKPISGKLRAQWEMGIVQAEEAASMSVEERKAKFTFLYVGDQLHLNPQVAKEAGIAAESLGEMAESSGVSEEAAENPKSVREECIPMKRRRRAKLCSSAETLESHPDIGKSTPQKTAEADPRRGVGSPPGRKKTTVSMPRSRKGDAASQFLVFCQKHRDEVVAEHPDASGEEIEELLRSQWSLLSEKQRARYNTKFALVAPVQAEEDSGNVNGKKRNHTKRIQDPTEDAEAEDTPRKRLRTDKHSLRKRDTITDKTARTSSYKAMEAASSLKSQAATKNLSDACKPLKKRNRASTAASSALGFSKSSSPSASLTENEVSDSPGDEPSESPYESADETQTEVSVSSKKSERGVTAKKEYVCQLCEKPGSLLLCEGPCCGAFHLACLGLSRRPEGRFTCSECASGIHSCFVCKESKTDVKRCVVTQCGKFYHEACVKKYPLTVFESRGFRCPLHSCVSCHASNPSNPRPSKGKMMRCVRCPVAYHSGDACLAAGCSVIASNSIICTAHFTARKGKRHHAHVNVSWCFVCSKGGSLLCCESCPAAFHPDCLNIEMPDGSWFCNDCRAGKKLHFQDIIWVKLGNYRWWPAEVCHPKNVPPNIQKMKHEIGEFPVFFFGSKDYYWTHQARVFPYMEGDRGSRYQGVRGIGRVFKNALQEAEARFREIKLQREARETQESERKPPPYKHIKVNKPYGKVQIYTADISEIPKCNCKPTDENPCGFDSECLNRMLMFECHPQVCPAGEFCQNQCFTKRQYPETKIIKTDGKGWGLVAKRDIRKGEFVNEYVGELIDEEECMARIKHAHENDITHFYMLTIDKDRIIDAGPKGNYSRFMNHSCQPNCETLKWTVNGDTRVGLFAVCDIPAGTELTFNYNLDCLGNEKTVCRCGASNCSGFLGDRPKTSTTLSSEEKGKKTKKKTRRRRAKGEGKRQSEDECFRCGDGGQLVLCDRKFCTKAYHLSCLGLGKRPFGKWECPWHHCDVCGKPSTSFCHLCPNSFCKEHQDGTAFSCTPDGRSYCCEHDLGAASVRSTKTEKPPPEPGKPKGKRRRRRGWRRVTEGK

A-375 = test: proliferation inhibition in MITF-low A375 cells – cell-based, cherry-pick samples, set 2, counter-screen for MITF modulator project, dose response (AID 540335); type: functional; conditions: Homo sapiens
[11] = target: T3, Microphthalmia-associated transcription factor (Homo sapiens, UniProt O75030); test: reducers of TRPM1 reporter luminescence, concentration series – cell-based, SK-MEL-5, cherry-picked, set 3, MITF inhibitor project, dose response (AID 493073); type: functional;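 note: SK-MEL-5 melanoma cells with luciferase driven by the MITF target TRPM1 promoter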
T3 sequence (O75030 whole entry): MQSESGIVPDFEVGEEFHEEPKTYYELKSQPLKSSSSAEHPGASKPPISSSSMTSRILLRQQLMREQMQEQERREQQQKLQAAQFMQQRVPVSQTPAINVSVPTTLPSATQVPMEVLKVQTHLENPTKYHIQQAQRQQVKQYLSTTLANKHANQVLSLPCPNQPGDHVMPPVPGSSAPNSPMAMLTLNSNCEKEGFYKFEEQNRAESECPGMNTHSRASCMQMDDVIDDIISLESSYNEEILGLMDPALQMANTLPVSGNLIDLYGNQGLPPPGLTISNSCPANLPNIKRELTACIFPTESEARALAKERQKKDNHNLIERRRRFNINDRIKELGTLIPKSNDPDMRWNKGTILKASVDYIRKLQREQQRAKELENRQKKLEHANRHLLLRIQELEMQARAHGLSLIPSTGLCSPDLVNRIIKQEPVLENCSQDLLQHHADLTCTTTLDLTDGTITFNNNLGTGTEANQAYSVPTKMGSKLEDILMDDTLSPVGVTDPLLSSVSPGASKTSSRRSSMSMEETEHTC

CAAX prenyl protease 2 [12] = target: CAAX prenyl protease 2 (Homo sapiens, UniProt Q9Y256); test: inhibition of Ras-converting CAAX protease Rce1 – biochemical, yeast membranes, quenched-peptide fluorescence, cherry-pick, dose response (AID 588849)
CAAX prenyl protease 2 [13] = target: T4, CAAX prenyl protease 2 (Saccharomyces cerevisiae S288c, UniProt Q03530); type: biochemical
T4 sequence (Q03530 whole entry): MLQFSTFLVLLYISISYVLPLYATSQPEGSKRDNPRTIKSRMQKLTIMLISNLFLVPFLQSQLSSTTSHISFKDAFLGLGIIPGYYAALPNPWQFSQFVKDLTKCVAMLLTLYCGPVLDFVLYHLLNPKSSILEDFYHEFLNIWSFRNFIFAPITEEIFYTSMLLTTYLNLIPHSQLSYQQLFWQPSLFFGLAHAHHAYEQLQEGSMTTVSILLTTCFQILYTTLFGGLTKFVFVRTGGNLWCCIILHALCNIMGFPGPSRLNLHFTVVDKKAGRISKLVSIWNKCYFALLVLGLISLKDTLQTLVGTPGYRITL

Delta-type opioid receptor, sequence (P41143 whole entry): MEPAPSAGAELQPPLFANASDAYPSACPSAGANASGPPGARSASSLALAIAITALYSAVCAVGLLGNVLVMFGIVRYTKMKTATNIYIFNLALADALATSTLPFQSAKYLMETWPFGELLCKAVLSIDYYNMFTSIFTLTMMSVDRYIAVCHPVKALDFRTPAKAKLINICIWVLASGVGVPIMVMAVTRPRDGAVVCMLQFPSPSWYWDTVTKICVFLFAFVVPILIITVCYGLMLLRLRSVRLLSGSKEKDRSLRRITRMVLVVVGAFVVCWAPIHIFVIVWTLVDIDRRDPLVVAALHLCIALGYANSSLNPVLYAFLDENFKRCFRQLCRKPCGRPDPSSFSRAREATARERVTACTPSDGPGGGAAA
CAAX prenyl protease 2 (Homo sapiens, UniProt Q9Y256), sequence (Q9Y256 whole entry): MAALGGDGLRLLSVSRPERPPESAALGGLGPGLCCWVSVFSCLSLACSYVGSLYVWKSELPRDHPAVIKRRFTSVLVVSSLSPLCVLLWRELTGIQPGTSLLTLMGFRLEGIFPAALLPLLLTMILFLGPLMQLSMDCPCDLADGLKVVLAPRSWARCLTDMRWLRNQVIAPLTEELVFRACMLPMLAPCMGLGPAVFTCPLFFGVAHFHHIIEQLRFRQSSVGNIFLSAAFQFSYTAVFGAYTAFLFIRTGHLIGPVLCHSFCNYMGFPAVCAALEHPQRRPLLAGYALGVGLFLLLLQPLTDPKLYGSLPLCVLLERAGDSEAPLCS
ATP-dependent molecular chaperone HSP82, sequence (C4YTQ8 whole entry): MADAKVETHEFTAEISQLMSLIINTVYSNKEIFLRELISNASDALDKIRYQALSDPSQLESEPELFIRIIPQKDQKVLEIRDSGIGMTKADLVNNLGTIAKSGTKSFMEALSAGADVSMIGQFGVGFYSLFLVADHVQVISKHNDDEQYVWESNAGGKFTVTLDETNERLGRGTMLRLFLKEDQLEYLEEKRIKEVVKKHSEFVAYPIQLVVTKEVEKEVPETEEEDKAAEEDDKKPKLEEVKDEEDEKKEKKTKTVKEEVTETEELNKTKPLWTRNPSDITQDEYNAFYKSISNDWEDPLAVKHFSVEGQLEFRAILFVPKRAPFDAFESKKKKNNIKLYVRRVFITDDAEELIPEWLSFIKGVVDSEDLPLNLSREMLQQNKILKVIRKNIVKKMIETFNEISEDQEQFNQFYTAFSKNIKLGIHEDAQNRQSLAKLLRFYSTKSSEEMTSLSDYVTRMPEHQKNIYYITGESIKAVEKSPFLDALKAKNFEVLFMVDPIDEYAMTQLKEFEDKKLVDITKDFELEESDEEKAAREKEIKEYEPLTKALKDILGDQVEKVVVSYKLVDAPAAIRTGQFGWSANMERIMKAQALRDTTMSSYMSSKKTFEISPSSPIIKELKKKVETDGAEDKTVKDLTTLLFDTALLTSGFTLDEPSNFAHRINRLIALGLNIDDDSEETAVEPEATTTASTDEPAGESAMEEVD
Mu-type opioid receptor, sequence (P35372 whole entry): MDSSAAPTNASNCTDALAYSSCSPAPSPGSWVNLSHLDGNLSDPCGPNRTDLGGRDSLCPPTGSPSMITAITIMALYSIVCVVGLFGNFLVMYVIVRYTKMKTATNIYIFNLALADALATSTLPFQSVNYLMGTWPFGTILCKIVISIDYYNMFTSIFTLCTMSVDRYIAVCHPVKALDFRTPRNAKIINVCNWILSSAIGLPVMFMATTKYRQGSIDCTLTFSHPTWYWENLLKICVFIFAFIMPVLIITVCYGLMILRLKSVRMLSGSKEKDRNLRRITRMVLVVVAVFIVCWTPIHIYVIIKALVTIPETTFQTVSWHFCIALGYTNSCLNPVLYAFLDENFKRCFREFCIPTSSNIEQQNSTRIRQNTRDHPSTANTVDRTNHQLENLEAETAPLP
5-hydroxytryptamine receptor 5A, sequence (P47898 whole entry): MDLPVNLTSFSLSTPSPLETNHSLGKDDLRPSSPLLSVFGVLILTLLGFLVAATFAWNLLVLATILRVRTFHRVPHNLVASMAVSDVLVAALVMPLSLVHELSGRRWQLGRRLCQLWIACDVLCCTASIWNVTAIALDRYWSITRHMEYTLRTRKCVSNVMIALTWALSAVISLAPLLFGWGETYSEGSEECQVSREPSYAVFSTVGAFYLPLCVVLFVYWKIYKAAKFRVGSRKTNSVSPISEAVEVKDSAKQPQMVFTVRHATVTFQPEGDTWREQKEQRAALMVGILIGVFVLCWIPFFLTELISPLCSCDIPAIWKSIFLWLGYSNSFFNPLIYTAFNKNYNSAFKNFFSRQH

**Q.** Which IC50 (Vero [1]) does the source give for `CN1CCN(c2ccc(NC(=O)c3ccc(-c4ccccc4F)o3)cc2)CC1` here?
**A.** 24.8 µM (active)

**Q.** And the AC50 [2]?
**A.** 26 µM (active)

**Q.** What about the EC50 [3] of the same compound?
**A.** > 92.5 µM (inactive)

**Q.** And the EC50 [4]?
**A.** 32.6 µM (inactive)

**Q.** What about the EC50 (Mu-type opioid receptor) of the same compound?
**A.** 26.3 µM (inactive)

**Q.** What about the CC50 (Vero [5]) of the same compound?
**A.** > 25 µM (active)

**Q.** What does the source list for `COc1ccc(OC)c(/C=C2\SC(=S)N(NS(=O)(=O)c3ccc(C)cc3)C2=O)c1`?
**A.** EC50 [6]: > 150 µM (inactive); EC50 [7]: 5.2 µM (active); EC50 [8]: 0.832 µM (active); EC50 [9]: > 180 µM (inactive); AC50 [10]: 15.9 µM (active)

**Q.** Which AC50 (A-375) does the source give for `CC(C)Oc1ccc(C(CCNCc2ccc(O)cc2)c2ccccc2)cc1` (stereo not given) here?
**A.** 18.8 µM (active)

**Q.** What about the AC50 [11] of the same compound?
**A.** 12.8 µM (active)

**Q.** For `COc1ccc(-c2c(C)oc3c(CN4CCN(C)CC4)c(O)ccc3c2=O)cc1`, which AC50 (CAAX prenyl protease 2 [12]) is on record?
**A.** 3.72 µM (active)

**Q.** And the AC50 (CAAX prenyl protease 2 [13])?
**A.** 28.6 µM (active)
